In US20070048225A1, “NK3 receptor in vivo assay” (priority 2005, published 2007):
Numbered stars: 1 amine (or outer) side, 2 acyl side, 3 side chain; on linkers, the order of the positions; unused ones are H or OH. Square brackets hold non-standard residues; d marks the D form. Peptide text beside a SMILES is read from it. NMeF = CN[C@@H](Cc1ccccc1)C(=O)O; Suc = O=C(CCC(=O)[*:2])[*:1]

Tests used:
NK3-receptor = target: T1, NK3-receptor (Homo sapiens, UniProt P29371); conditions: double blind placebo controlled; Meltzer et al. 2004; cited from earlier work
T1 construct: active in a double blind placebo controlled clinical trial in schizophrenia patients; host or cells: schizophrenia patients (Meltzer et al., Am J Psych 161:975-84, 2004)
T1 sequence (P29371 1-465): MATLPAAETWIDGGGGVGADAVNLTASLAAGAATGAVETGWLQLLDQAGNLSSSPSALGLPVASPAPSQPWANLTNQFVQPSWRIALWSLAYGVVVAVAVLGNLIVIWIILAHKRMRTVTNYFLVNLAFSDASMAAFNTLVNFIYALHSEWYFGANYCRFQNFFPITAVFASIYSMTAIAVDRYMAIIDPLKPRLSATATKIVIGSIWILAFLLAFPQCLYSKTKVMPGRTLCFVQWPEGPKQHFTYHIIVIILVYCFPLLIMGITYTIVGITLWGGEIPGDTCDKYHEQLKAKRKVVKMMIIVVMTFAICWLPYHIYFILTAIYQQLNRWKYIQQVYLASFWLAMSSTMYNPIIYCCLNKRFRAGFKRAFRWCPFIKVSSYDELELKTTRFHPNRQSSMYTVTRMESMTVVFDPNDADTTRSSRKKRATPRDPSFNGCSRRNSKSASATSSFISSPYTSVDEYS

NK3 receptor = assay: Senktide-induced locomotor activity in gerbils (total distance traveled); type: in vivo, Mongolian gerbil; conditions: senktide 0.01, 0.03 or 0.1 nM/5 μL ICV tested, effect at 0.1 nM/5 μL, activity measured for 90 minutes, FIG. 1
Protocol: Male and female Mongolian gerbils [Biological Research Laboratories, 4414 Füllinsdorf, Switzerland] weighing between 40-70 g were used. Gerbils were housed four per cage for approximately four to seven days following arrival in the laboratory colony. The gerbils had ad libitum access to tap water and lab chow in the home cage. The animal quarters were maintained on a 12:12 hour light-dark cycle with light onset at 6 a.m. and with both temperature (21-23° C.) and humidity (55-65%) regulated. All testing was conducted during the light phase of the light-dark cycle. All procedures described here received prior approval from the City of Basel Cantonal Animal Protection Committee based on adherence to federal and local regulations. The experiments were carried out in an animal colony supervised by the veterinary staff of Hoffmann-La Roche Ltd.
The antagonists were prepared immediately prior to use (vehicle 0.3% Tween-80/saline). […]
The incision was closed using a clip suture and gerbils were placed into perspex boxes on recovery of their righting reflex and then placed into locomotor activity boxes (Accuscan instruments, USA). Activity was then measured automatically for a period of 90 minutes.
Data were analysed using a One way anova followed by Dunnet multiple comparison test or t-test (one-tailed) where appropriate (Statistica, Statsoft).

SMILES	activity in clinical trial in schizophrenia patients (NK3-receptor)	total distance traveled (locomotor activity) (NK3 receptor)
CC(=O)N(C)C1(c2ccccc2)CCN(CCC[C@]2(c3ccc(Cl)c(Cl)c3)CCCN(C(=O)c3ccccc3)C2)CC1 [SR142801]	active	
CSCC[C@H](NC(=O)[C@H](CC(C)C)NC(=O)CNC(=O)[C@H](Cc1ccccc1)N(C)C(=O)[C@H](Cc1ccccc1)NC(=O)[C@H](CC(=O)O)NC(=O)CCC(=O)O)C(N)=O [Senktide, N-(3-carboxy-1-oxopropyl)-L-α-aspartyl-L-phenylalanyl-N-methyl-L-phenylalanylglycyl-L-leucyl-L-methioninamide] (Suc-DF[NMeF]GLM-NH2)		significant increase
